Experimental data published in US5607836A, “Methods of detecting compounds which bind to the P2U receptor” (The Curators of the University of Missouri, priority 1995, dated 1997).

What was measured:
murine P2U receptor [1] = target: T1, murine P2U receptor (Mus musculus, UniProt P35383); experiment: cytoplasmic free calcium (fura-2) in K562 cells transfected with P2U receptor cDNA; assay type: cell-based; design: missing the first 6 nucleotides of the 5' untranslated region of the full length cDNA; expressed in transfected cells; host or cells: K562 human leukemia cells; settings: for effect on [Ca^2+ ]i in stable transfectants / prevention of ATP-mediated increases in [Ca^2+ ]i (antagonism): concentrations as high as 1 mM, stable transfectants
Description: (§1) Stable and Transient Transfections. To generate stable transfectants expressing the P2U receptor, K562 cells were transfected by electroporation (F. Toneguzzo et al., Mol. Cell. Biol. 6, 703 (1986)) with the neomycin-resistance plasmid pP2R1. pP2R1 is pRc/CMV containing a ~2.4 kb HindIII-NotI fragment of the P2U receptor cDNA, missing the first 6 nucleotides of the 5' untranslated region of the full length cDNA. control cells were stably transfected with pRc/CMV. Cells were sedimented at 200×g for 5 min at room temperature, rinsed once with phosphate-buffered saline (10 mM NaH2 PO4, pH 7.4, 120 mM NaCl, 5 mM KCl), and resuspended in phosphate-buffered saline at a final concentration of 4×10^7 cells/ml. The cells were chilled on ice for 10 min and then transferred in 0.5 ml aliquots to prechilled electroporation cuvettes. DNA (40 μg of pP2R1 linearized with PvuI) was added to the cell suspension, the cells were subjected to a single electrical pulse (1 kV, 25 μF) and the cuvettes were placed on ice. After 10 min, growth medium was added and the cells were incubated at 37° C. Fresh growth medium supplemented with 0.7 mg/ml G418 was added 48 h […], and the cells were incubated for 2 weeks to select for stable transfectants expressing neomycin resistance. Clonal cell lines were then isolated by transferring single cells to individual wells of a 96-well culture plate: each well contained 0.2 ml of conditioned growth medium filtered from K562 stock cultures, 0.2 ml of fresh growth medium, and 0.4 mg/ml G418. The clonal cell lines were cultured for three to four weeks in growth medium containing 0.4 mg/ml G418 and assayed for P2U receptor, the results shown are from one representative clonal cell line.
To generate transient transfectants, K562 cells were transfected as above with 40 μg unlinearized plasmid pCCM6×1 or pP2R (Lustig et al., supra 1993). Cells were incubated for 48 h at 37° C. in 100 mm culture dishes containing 12 ml of growth medium and assayed for P2U receptor activity.
(§2) Cytoplasmic Free Calcium Measurements. Cells were sedimented at 200×g for 5 min at room temperature and washed once with 10 ml of Hepes-bufferedsaline (20 mM Hepes, pH 7.4, 120 mM NaCl, 5 mM KCl, 1 mM MgCl2, and 1 mM CaCl2). Washed cells were suspended in Hepes-buffered saline at 5×10^5 cells/ml, and stored (for up to 4 h) at 37° C. The concentration of cytoplasmic free calcium, [Ca^2+ ]i, was measured by dual-excitation spectrofluorometric analysis of cells loaded with fura-2, a fluorescent probe for calcium.

[2] = system: P2T receptor of K562 cells; experiment: cytoplasmic free calcium (fura-2) in untransfected or vector-transfected K562 cells; assay type: cell-based, human; settings: untransfected K562 cells; for elevation of [Ca^2+ ]i in untransfected K562 cells (P2T receptor): 1 mM for ATP, UTP, ATPγS, BzATP, BzUTP; for effect on [Ca^2+ ]i in untransfected K562 cells: concentrations as high as 1 mM
Description: as §1, §2

murine P2U receptor [3] = target: T1, murine P2U receptor; design: host or cells: Xenopus oocytes; settings: Lustig et al. 1993, cited from earlier work; for stimulation of ^45 Ca^2+ efflux in oocytes: oocytes expressing the cloned receptor
human P2U receptor [4] = target: T2, human P2U receptor (Homo sapiens, UniProt P41231); experiment: intracellular calcium by fura-2 fluorescence in 1321N1 human astrocytoma cells expressing the cloned HP2U (LHP2USN); assay type: cell-based; settings: for efficacy / effect in concentration-effect curves: HP2U clone expressed in 1321N1 cells
Procedure: (§3) Heteroloqous Expression. A retroviral vector-containing plasmid, pLHP2USN, was constructed by insertion of the cloned CF/T43 cDNA into the EcoRI and XhoI sites of pLXSN (A. Miller and G. Rosman, Biotechniques 7, 980 (1989)). An amphotrophic packaging cell line, PA317, was used to produce the LHP2USN retroviral vector and a control vector containing Neor only (LSN). Clonal human astrocytoma cells 1321N1, UNC strain, generously provided by T. K. Harden (UNC, Chapel Hill, N.C.), were plated at 150,000 cells per 60-mm dish and infected with LHP2USN or LSN (2 hr, 4 ug/ml Polybrene) and after 48 hr selected with 600 ug/ml G418 (Life Technologies, Inc., Gaithersburg, Md., U.S.A.). To assay for receptor activity, intracellular calcium concentration was measured in confluent cells on coverslips by fura-2 fluorescence using microspectrofluorimetry as previously described (S. Mason et al., Br. J. Pharmacol. 103, 1649 (1991)). Measurement of cell inositol phosphate formation was as described by H. Brown et al., Mol. Pharmacol. 40, 648 (1991), in accordance with known techniques.
(§4) A retrovirus expression system was employed to study the cloned CF/T43 HP2U cDNA in 1321N1 human astrocytoma cells. The effect of extracellular nuceotides on intracellular calcium, as measured by fura-2 fluorescence, was assessed in CF/T43 cells, uninfected 1321N1 cells, and 1321N1 cells infected with retroviral vector containing either the cloned HP2U or no insert (LSN).
To examine the pharmacological specifity of the HP2U clone expressed in 1321N1 cells, concentration-effect curves were generated for nucleotides and structural analogues active at P2X, P2Y and P2U receptors (data not shown). […] These concentration-effect relations are very similar to those reported for heterologously expressed murine P2U (Lustig, et al., supra) and virtually indistinguishable from data (not shown) generated for the endogenous CF/T43 and HT-29 receptors. Clearly, the agonist specifities fit the definition of the P2U receptor.

[5] = system: 1321N1 human astrocytoma cells (uninfected or LSN-infected); experiment: intracellular calcium by fura-2 fluorescence in uninfected or LSN-infected 1321N1 control cells; assay type: cell-based; settings: uninfected or LSN-infected controls
Procedure: as §3, §4

human P2U receptor [6] = target: T2, human P2U receptor; experiment: inositol phosphate formation in 1321N1 cells expressing LHP2USN; assay type: cell-based; settings: HP2U-1321N1 cells; apyrase in the medium during cell-labeling step
Procedure: as §3
To test this possibility more directly, we measured inositol phosphate formation. […] We hypothesized that during the lengthy labeling period 1321N1 cells released 5'-nucleotides into the medium in quantities sufficient to "self-activate" the receptor. […] Thus, it appears the cells are persistently stimulated by nucleotides in an autocrine fashion. The mode of release of nucleotides from the astrocytoma cells and the biological consequences of the persistent autocrine activation are unknown. To facilitate comparison with controls, the inositol phosphate studies were performed on cells pretreated with apyrase.

[7] = target: T3, P2U receptor of CF/T43 cells (Homo sapiens, UniProt P41231); experiment: intracellular calcium by fura-2 fluorescence in CF/T43 cells (endogenous receptor); assay type: cell-based; settings: pretreatment
T3 construct: fura-2 calcium
Procedure: as §3, §4

T1 sequence (P35383 whole entry, the tested form may be a part): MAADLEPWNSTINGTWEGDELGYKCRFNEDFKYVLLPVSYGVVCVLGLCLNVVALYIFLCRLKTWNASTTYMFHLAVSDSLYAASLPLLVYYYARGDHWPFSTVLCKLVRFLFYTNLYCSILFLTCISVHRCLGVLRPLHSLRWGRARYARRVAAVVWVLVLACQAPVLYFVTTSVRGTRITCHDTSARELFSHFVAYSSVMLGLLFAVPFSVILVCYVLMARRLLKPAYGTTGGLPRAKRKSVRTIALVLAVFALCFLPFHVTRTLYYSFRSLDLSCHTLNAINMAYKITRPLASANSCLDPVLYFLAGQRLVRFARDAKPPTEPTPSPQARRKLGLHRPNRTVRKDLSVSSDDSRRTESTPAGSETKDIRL
T2 sequence (P41231 whole entry): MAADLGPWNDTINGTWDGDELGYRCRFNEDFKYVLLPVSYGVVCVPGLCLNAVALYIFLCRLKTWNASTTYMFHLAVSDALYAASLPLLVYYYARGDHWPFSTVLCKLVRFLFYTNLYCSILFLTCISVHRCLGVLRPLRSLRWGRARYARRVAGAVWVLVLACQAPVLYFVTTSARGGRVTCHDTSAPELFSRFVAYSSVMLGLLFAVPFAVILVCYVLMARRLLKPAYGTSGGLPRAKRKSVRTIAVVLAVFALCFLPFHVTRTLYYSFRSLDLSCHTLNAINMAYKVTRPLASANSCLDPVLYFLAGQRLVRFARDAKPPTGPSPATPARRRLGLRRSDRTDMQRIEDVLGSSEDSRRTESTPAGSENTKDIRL
T3 sequence (P41231 whole entry): as above

Row | Molecule | effect on [Ca^2+ ]i in stable transfectants (murine P2U receptor [1]) | prevention of ATP-mediated increases in [Ca^2+ ]i (antagonism) (murine P2U receptor [1]) | effect on [Ca^2+ ]i in untransfected K562 cells [2] | further results
1 | CSc1nc(N)c2ncn([C@@H]3O[C@H](COP(=O)(O)OP(=O)(O)OP(=O)(O)O)[C@@H](O)[C@H]3O)c2n1 [2-MeSATP, 2-methylthioATP] |  |  |  | agonist activity at the P2U receptor (murine P2U receptor [1]; K562 stable transfectants): do not appear to act as agonists of the P2U receptor; elevation of [Ca^2+ ]i in untransfected K562 cells (P2T receptor) [2]: elevated [Ca^2+ ]i; stimulation of ^45 Ca^2+ efflux in oocytes (murine P2U receptor [3]): did not stimulate; efficacy / effect in concentration-effect curves (human P2U receptor [4]): had little effect
2 | Nc1ncnc2c1ncn2[C@@H]1O[C@H](COP(=O)(O)OP(=O)(O)O)[C@@H](O)[C@H]1O [ADP] |  |  |  | agonist activity at the P2U receptor (murine P2U receptor [1]; K562 stable transfectants): do not appear to act as agonists of the P2U receptor; elevation of [Ca^2+ ]i in untransfected K562 cells (P2T receptor) [2]: elevated [Ca^2+ ]i; stimulation of ^45 Ca^2+ efflux in oocytes (murine P2U receptor [3]): did not stimulate
3 | Nc1ncnc2c1ncn2[C@@H]1O[C@H](COP(=O)(O)O)[C@@H](O)[C@H]1O [AMP] | had no effect | did not prevent ATP-mediated increases | had no effect | 
4 | Nc1ncnc2c1ncn2[C@@H]1O[C@H](COP(=O)(O)OP(=O)(O)OP(O)(O)=S)[C@@H](O)[C@H]1O [ATPγS] |  |  |  | agonist activity at the P2U receptor (murine P2U receptor [1]; K562 stable transfectants): relatively potent agonist; EC50 (murine P2U receptor [1]; K562 stable transfectants, read-out: EC50 for increases in [Ca^2+ ]i): ~9.6 µM; agonist activity at the P2U receptor in Xenopus oocytes (murine P2U receptor [3]; Xenopus oocytes): relatively potent agonist
5 | Nc1ncnc2c1ncn2[C@@H]1O[C@H](COP(=O)(O)OP(=O)(O)OP(=O)(O)O)[C@@H](OC(=O)c2ccc(C(=O)c3ccccc3)cc2)[C@H]1O [BzATP, 3'-O-(4-benzoyl)benzoyl adenosine 5'-triphosphate] |  |  |  | agonist activity at the P2U receptor (murine P2U receptor [1]; K562 stable transfectants): relatively weak agonists compared to ATP and UTP
6 | O=C(O[C@H]1[C@@H](O)[C@H](n2ccc(=O)[nH]c2=O)O[C@@H]1COP(=O)(O)OP(=O)(O)OP(=O)(O)O)c1ccc(C(=O)c2ccccc2)cc1 [BzUTP, 3'-O-(4-benzoyl)benzoyl uridine 5'-triphosphate] |  |  |  | agonist activity at the P2U receptor (murine P2U receptor [1]; K562 stable transfectants): relatively weak agonists compared to ATP and UTP
7 | Nc1ccn([C@@H]2O[C@H](COP(=O)(O)OP(=O)(O)OP(=O)(O)O)[C@@H](O)[C@H]2O)c(=O)n1 [CTP] | had no effect | did not prevent ATP-mediated increases | had no effect | 
8 | Nc1nc2c(ncn2[C@@H]2O[C@H](COP(=O)(O)OP(=O)(O)OP(=O)(O)O)[C@@H](O)[C@H]2O)c(=O)[nH]1 [GTP] | had no effect | did not prevent ATP-mediated increases | had no effect | 
9 | Cc1cn([C@H]2C[C@H](O)[C@@H](COP(=O)(O)OP(=O)(O)OP(=O)(O)O)O2)c(=O)[nH]c1=O [TTP] | had no effect | did not prevent ATP-mediated increases | had no effect | 
10 | O=c1ccn([C@@H]2O[C@H](COP(=O)(O)OP(=O)(O)O)[C@@H](O)[C@H]2O)c(=O)[nH]1 [UDP] | had no effect | did not prevent ATP-mediated increases | had no effect | 
11 | Nc1ncnc2c1ncn2[C@@H]1O[C@H](CO)[C@@H](O)[C@H]1O [adenosine] | had no effect | did not prevent ATP-mediated increases | had no effect | 
12 | C[N+](C)(C)CCOC(N)=O [carbachol] |  |  |  | [Ca^2+ ]i response of uninfected or LSN-infected 1321N1 cells [5]: elicited responses in each case
13 | Nc1ncnc2c1ncn2[C@@H]1O[C@H](COP(=O)(O)CP(=O)(O)OP(=O)(O)O)[C@@H](O)[C@H]1O [α,β-MeATP] |  |  |  | efficacy / effect in concentration-effect curves (human P2U receptor [4]): had little effect
14 | Nc1ncnc2c1ncn2[C@@H]1O[C@H](COP(=O)(O)OP(=O)(O)NP(=O)(O)O)[C@@H](O)[C@H]1O [β,γ imidoATP] | had no effect | did not prevent ATP-mediated increases | had no effect | 
15 | Nc1ncnc2c1ncn2[C@@H]1O[C@H](COP(=O)(O)OP(=O)(O)CP(=O)(O)O)[C@@H](O)[C@H]1O [β,γ methyleneATP] | had no effect | did not prevent ATP-mediated increases | had no effect | 
16 | apyrase |  |  |  | baseline inositol phosphate levels (human P2U receptor [6]): reduced the baseline inositol phosphate levels to values near those of controls
17 | pertussis toxin |  |  |  | inhibition of ATP-stimulated intracellular Ca^2+ mobilization [7]: 20-30%; inhibition of ATP-stimulated intracellular Ca^2+ mobilization (human P2U receptor [4]; HP2U-1321N1 cells, pretreatment): 20-30%
